Assay results as given in patent publication US20090123389A1, “Methods for modulating Th17 cell development in the treatment and prevention of cellulite” (priority 2007, published 2009).

System: STAT3
Test: Kinetics of STAT3 phosphorylation in developing Th17 cells
Type: cell-based, mouse
Details: TGFβ plus IL-6
Method: FIG. 11A is a series of graphs depicting representative histograms displaying the kinetics of STAT3 phosphorylation in developing Th17 cells treated with or without HF. Resting naïve T cells (shaded peak), T cells activated in the presence of TGFβ plus IL-6 (TGFβ/IL-6) treated with 10 nM MAZ1310, TGFβ/IL-6-activated T cells treated with 5 nM HF, TGFβ/IL-6-activated T cells treated with 10 nM HF. T cells were fixed at the indicated times and intracellular phospho-STAT3 staining was performed.
Whole cell lysates were generated at the indicated times following activation, and western blotting was performed using the indicated antibodies.
FACS analyses and sorting: All cell surface staining was performed in FACS buffer (PBS/2% FCS/0.1% NaN3) and antibodies were incubated with cells on ice for 20-30 minutes. Cells were washed with FACS buffer and fixed with FACS buffer plus 1% paraformaldehyde prior to data acquisition. For phospho-STAT3 intracellular staining, stimulated T cells cultured with or without TGFβ plus IL-6 for the indicated times were harvested on ice and fixed in PBS plus 2% paraformaldehyde for 10 minutes at 37° C. […] All FACS data was acquired on a FACSCalibur flow cytometer (BD Pharmingen) and analyzed using FlowJo software (Treestar, Inc., Ashland, Oreg.). […]

Q: Which “STAT3 activation during the first 6 hours of Th17 differentiation” value (5 or 10 nM HF) does the source give for O=C(CC1NCCCC1O)Cn1cnc2cc(Br)c(Cl)cc2c1=O (racemic) [HF, 7-bromo-6-chloro-3-[3-(3-hydroxy-2-piperidinyl)-2-oxopropyl]-4(3H)-quinazolinone] here?
A: Its value is “did not interfere”.

Q: And the “maintenance of STAT3 phosphorylation” value (beginning around 12 hours-post activation)?
A: Its value is “decreased the maintenance of STAT3 phosphorylation”.
